The text below walks through data of patent US9446146B2, “Methods and agents for improving targeting of CD138 expressing tumor cells” (BIOTEST AG, priority 2007, dated 2016).

The subject of experiment [1] is MOLP-8 human multiple myeloma xenografts. Briefly: Xenograft mouse experiments A Part I, MOLP-8, single iv bolus. It is filed as in vivo, CB.17 SCID mice. As to conditions: for tumor growth compared with PBS-treated animals: single iv bolus 250 μg/kg (nBT062 antibody […]). Here is the method:
In these mice, subcutaneous tumors were established (female CB.17 SCID mice) by inoculation with MOLP-8 cell suspensions. Treatment with a single bolus intravenous injection was conducted when tumor volumes reached an average 113 mm^3. Changes in tumor volume and body weight were monitored twice per week.
Each mouse was inoculated with 1×10^7 MOLP-8 cells subcutaneously into the area under the right shoulder. The total volume was 0.2 ml per mouse, in which the ratio of serum-free medium to matrigel (BD Bioscience, Bedford, Mass.) was 1/1 (v/v). Prior to treatment, the xenograft tumors were monitored daily and were allowed to become established.
Eleven days after tumor cell inoculation, 42 mice were selected based on tumor volumes and body weights. […] The forty-two mice were randomly divided into seven groups (A-G) of six animals each based on tumor volume.
Each of six mice in Group A received 200 μl of PBS as vehicle control.
All agents were intravenously administered as a single bolus injection through a lateral tail vein with a 1 ml syringe fitted with a 27 gauge, ½ inch needle.

A further experiment deals with MOLP-8 tumor xenografts. Briefly: Bulky MOLP-8 tumor model (Part II / Xenograft mouse experiments B). As to conditions: 450 μg/kg dose; mean time to reach 160 mm^3 minus control. It is filed as in vivo, SCID mice.

Method for MOLP-8 tumor xenografts: In a second set of experiments, MOLP-8 cells (1.5×10^7 cells per mouse), suspended in a 50:50 mixture of serum free media and matrigel were injected subcutaneously in the area under the right shoulder in 100 μl. Tumor volumes reached about 80 mm^3 at day 11 and the mean of the controls was about 750 mm^3 at day 25, post cell inoculation. […] Each mouse in the control group (n=6) received 0.2 ml of sterile PBS administered into the lateral tail vein (i.v.) in a bolus injection. All treatment doses were based on conjugated maytansinoid. […] Mice were randomized into eleven groups (n=6) by tumor volume using the LabCat Program. The tumor volumes ranged from 40.0 to 152.5 mm^3. The mice were dosed based on the individual body weight.
Tumor size was measured twice per week in three dimensions using the LabCat System (Tumor Measurement and Tracking, Innovative Programming Associated, Inc., Princeton, N.J.).
In this set of experiments, eighty-five mice were inoculated with MOLP-8 cells (1.5×10^7 cells/mouse) subcutaneously in the right shoulder. […] Sixty-six SCID mice bearing bulky MOLP-8 tumors with a mean tumor volume of about 80 mm^3 were randomized into eleven treatment groups (n=6).

Consider `COc1cc2cc(c1Cl)N(C)C(=O)C[C@H](OC(=O)[C@H](C)N(C)C(=O)CCC(C)(C)S)[C@]1(C)O[C@H]1[C@H](C)[C@@H]1C[C@@](O)(NC(=O)O1)[C@H](OC)/C=C/C=C(\C)C2` [DM4, N^2′-deacetyl-N^2′-(4-methyl-4-mercapto-1-oxopentyl)-maytansine], for which the “tumor growth compared with PBS-treated animals” value in experiment [1] is given as “did not cause any significant inhibition of tumor growth”.
B-B4-SPP-DM1: the “homogeneity of anti-tumor activity in individual mice” value in experiment [1] (single iv 250 μg/kg, FIG. 9) was “more heterogeneously and therefore less predicable”. Also, the “tumor growth compared with PBS-treated animals” value in experiment [1] is recorded as “marked delay in tumor growth”.
For nBT062-DM1, in the experiment on MOLP-8 tumor xenografts, the “TGD*” value came to 18 days.

B1: huC242-DM4 (conjugate, chains of the INN, looked up)
VH: QVQLVQSGAEVKKPGETVKISCKASDYTFTYYGMNWVKQAPGQGLKWMGWIDTTTGEPTYAQKFQGRIAFSLETSASTAYLQIKSLKSEDTATYFCARRGPYNWYFDVWGQGTTVTVSS
VL: DIVMTQSPLSVPVTPGEPVSISCRSSKSLLHSNGNTYLYWFLQRPGQSPQLLIYRMSNLVSGVPDRFSGSGSGTAFTLRISRVEAEDVGVYYCLQHLEYPFTFGPGTKLELK
modifications: DM4 maytansinoid payload
On to B1, for which, in experiment [1], the “tumor growth compared with PBS-treated animals” value is “did not cause any significant inhibition of tumor growth”.
